Measurements: US8193168B2, “Use of a TRPM5 inhibitor to regulate insulin and GLP-1 release” (Redpoint Bio Corporation, priority 2007, dated 2012)

Tests used:
[1] = target: T1, TRPM5 (Homo sapiens, UniProt Q9NZQ8); test: TRPM5 inhibition (FLIPR Membrane Potential Assay); assay type: cell-based
T1 sequence (Q9NZQ8 1-1165): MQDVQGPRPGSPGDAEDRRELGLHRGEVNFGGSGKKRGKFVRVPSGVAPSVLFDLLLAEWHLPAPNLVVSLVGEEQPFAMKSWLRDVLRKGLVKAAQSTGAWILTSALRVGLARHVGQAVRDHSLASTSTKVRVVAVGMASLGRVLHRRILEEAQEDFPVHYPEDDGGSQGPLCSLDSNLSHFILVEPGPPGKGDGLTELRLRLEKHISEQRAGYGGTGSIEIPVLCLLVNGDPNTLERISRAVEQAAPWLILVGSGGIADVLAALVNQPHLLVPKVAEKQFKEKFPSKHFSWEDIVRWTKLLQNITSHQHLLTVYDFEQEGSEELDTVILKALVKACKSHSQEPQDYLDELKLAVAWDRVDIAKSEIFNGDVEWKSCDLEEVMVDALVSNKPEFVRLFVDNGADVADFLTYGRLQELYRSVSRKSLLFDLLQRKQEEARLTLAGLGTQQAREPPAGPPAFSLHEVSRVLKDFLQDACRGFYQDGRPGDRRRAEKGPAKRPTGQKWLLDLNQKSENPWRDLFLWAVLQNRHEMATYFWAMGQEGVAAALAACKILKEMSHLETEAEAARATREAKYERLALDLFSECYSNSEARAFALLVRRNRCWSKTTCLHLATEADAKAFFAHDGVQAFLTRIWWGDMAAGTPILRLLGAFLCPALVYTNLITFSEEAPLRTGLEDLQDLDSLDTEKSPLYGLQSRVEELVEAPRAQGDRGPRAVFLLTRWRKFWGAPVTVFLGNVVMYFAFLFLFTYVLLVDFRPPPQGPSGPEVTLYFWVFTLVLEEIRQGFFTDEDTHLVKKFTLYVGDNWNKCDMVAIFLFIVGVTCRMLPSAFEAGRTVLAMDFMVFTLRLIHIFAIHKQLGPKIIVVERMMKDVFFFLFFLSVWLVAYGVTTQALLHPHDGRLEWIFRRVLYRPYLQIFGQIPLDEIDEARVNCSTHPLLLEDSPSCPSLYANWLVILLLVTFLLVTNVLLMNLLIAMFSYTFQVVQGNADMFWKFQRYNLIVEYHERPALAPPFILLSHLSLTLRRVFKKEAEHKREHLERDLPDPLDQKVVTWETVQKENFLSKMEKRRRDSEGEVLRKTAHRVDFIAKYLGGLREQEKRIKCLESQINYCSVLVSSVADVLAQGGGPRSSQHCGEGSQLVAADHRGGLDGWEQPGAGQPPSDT

[2] = test system: GLUTag cells; test: GLP-1 release from GLUTag cells (GLP-1 ELISA); assay type: cell-based, mouse; conditions: 12.5 mM glucose, FIG. 17
Method: Mouse GLUTag cells are a native intestinal cell line which expresses TRPM5. The cell line was obtained from Dr. Daniel J. Drucker in the Division of Endocrinology, Department of Medicine, at University of Toronto, and grown in Invitrogen Dulbecco's Modified Eagle's Medium (DMEM) high glucose (Cat #: 11995) with 10% fetal bovine serum (FBS) and 1× penn/strep antibiotic mix in a 37° C. incubator with 5% CO2.
All reagents and media were pre-warmed to room temperature prior to the beginning of the experiment. Substrate diluent and the light-sensitive Substrate were thawed out right before use.
BD 96-well Matrigel-coated plates (Fisher, Cat #: 08-774-166) with GLUTag cells were rehydrated using 100 μL of plating media (Invitrogen's (Cat #: 31985) OPTI-Modified Eagle's Medium (MEM) with 10% FBS and 1× penn/strep antibiotic mix) and incubated for 30 minutes in a 37° C. incubator with 5% CO2. GLUTag cells were then trypsinized and counted. A cell dilution with seeding density of 7.5×10^5 cells/ml of GLUTag cells was created. The rehydration media was aspirated from the Matrigel coated plate. […] of cell dilution were plated into each well of the plate. The plates were then incubated overnight in a 37° C. incubator with 5% CO2.
The following protocol utilized the Millipore GLP-1 ELISA Kit (Cat. #: EGLP-35K) to analyze GLP-1 secretion from GLUTag cells in the presence of TRPM5 inhibitors/enhancers and glucose.
Stock solutions and dilution plates of TRPM5 inhibitors or enhancers were prepared. 1% of bovine serum albumin (BSA) was added to Krebb's Ringer Bicarbonate Buffer (KRBB) right before use. KRBB consists of 118.5 mM NaCl, 2.54 mM CaCl2.2H2O, 1.19 mM KH2PO4, 4.74 mM KCl, 25 mM NaHCO3, 1.19 mM MgSO4.7H2O, and 10 mM HEPES buffer at pH 7.4. The cell plates were incubated with 100 μL of KRBB for 30 minutes. The KRBB buffer was then aspirated. This incubation step was repeated once. The KRBB buffer was aspirated and replaced with 150 μL of the same buffer containing various concentration of TRPM5 inhibitors or enhancers and glucose, i.e. 12.5 mM glucose and 1.5 μM TRPM5 inhibitors. KRBB buffer without the TRPM5 inhibitors/enhancers and glucose were also tested in triplicates. Static incubations of treated cells were then performed for 2 h in a 37° C. incubator with 5% CO2.
During the last 30 minutes of the two-hour incubation, 96-well ELISA plates were prepared as follows. […]

SMILES	IC50 [1]	GLP-1 secretion [2]	efficacy and potency of GLP-1 secretion, compared between compounds [2]
COc1ccc(/C=N/NC(=O)Cc2cccc3ccccc23)cc1OC [Example 3, (E)-N′-(3,4-Dimethoxybenzylidene)-2-(naphthalene-1-yl)acetohydrazide]	600 nM	increase GLP-1 secretion	increases the efficacy of GLP-1 secretion
COc1ccc(/C=N/NC(=O)CCn2c3ccccc3c3ccccc32)cc1OC [Example 23, 3-Carbazol-9-ylpropionic acid (3,4-dimethoxybenzylidene)hydrazide]	500 nM	increase GLP-1 secretion	more potent than the compound of Example 3
